Data: patent US20060083830A1, “Polylysine-containing food additive and acidic adjuvant” (priority 2004, published 2006)
“And” between values parts separate entries of the source, which are not always exact repeats. Equal entries are not always repeated.

System: Listeria monocytogenes
Assay: L. monocytogenes on cooked ground turkey balls blended with ε-polylysine, vacuum packaged, stored at 10° C., CFU determination
Assay type: cell-based
Conditions: for Log Reduction: vs control Group A
Protocol: Six groups of 20 g ground uncooked turkey balls were prepared, with 27 balls prepared per group. […] Groups B-F were blended with varying amounts of ε-polylysine (“ε-PL”). Final concentrations of ε-polylysine within the turkey balls were:
After preparation, all meatballs were placed on baking sheets and baked in a conventional oven at 350° F. for 20 minutes. After baking, the meatballs were packaged separately and stored at 4° C.
The mixture was further diluted 1:10,000 times with sterile saline to produce a suspension for use.
20 microliters of the Listeria monocytogenes suspension was inoculated onto the exterior of each turkey ball. Turkey balls were incubated at room temperature for 30 min post-inoculation to allow bacteria to attach. Turkey balls were individually vacuum packaged and stored at 10° C.
The microbiological assay was performed after 3 hours, 24 hours, 1 week, 2 weeks, 3 weeks, 4 weeks, 5 weeks, 7 weeks, and 8 weeks. After each designated time period had passed, three bags from each group of meat balls were unpacked, transferred to a stomacher bag along with 20 ml of sterile 0.1% peptone water. Each meatball was hand crushed and stomached at high speed for 2 minutes. […] The letter “{overscore (A)}” denotes average.

poly(imino(2-amino-1-oxo-1,6-hexanediyl)) [ε-PL]
CFU/g (1000 ppm ε-PL, after 1 week): 5.35E+06 CFU/g and 3.75E+06 CFU/g and 4.05E+06 CFU/g | average Log Value (1000 ppm ε-PL, after 1 week): 6.64 | average of CFU/g (1000 ppm ε-PL, after 1 week): 4.38E+06 CFU/g | Log Reduction (1000 ppm ε-PL, after 1 week): 1.64 | average Log Value (1000 ppm ε-PL, after 2 weeks): 7.61 | average of CFU/g (1000 ppm ε-PL, after 2 weeks): 4.09E+07 CFU/g | Log Reduction (1000 ppm ε-PL, after 2 weeks): 0.68 | average Log Value (1000 ppm ε-PL, after 3 weeks): 6.73 | average of CFU/g (1000 ppm ε-PL, after 3 weeks): 5.24E+06 CFU/g | Log Reduction (1000 ppm ε-PL, after 3 weeks): 1.66 | average Log Value (1000 ppm ε-PL, after 4 weeks): 7.73 | average of CFU/g (1000 ppm ε-PL, after 4 weeks): 5.42E+07 CFU/g | Log Reduction (1000 ppm ε-PL, after 4 weeks): 0.74 | average Log Value (1000 ppm ε-PL, after 5 weeks): 7.98 | average of CFU/g (1000 ppm ε-PL, after 5 weeks): 9.64E+07 CFU/g | Log Reduction (1000 ppm ε-PL, after 5 weeks): 0.44 | average Log Value (1000 ppm ε-PL, after 7 weeks): 7.80 | average of CFU/g (1000 ppm ε-PL, after 7 weeks): 6.33E+07 CFU/g | Log Reduction (1000 ppm ε-PL, after 7 weeks): 0.62 | average Log Value (1000 ppm ε-PL, after 8 weeks): 7.66 | average of CFU/g (1000 ppm ε-PL, after 8 weeks): 4.53E+07 CFU/g | Log Reduction (1000 ppm ε-PL, after 8 weeks): 0.68 | CFU/g (1000 ppm ε-PL, after 3 hours): 2.34E+02 CFU/g and 1.54E+02 CFU/g and 1.56E+02 CFU/g | average Log Value (1000 ppm ε-PL, after 3 hours): 2.26 | average of CFU/g (1000 ppm ε-PL, after 3 hours): 1.81E+02 CFU/g | Log Reduction (1000 ppm ε-PL, after 3 hours): 0.53 | average Log Value (1000 ppm ε-PL, after 24 hours): 3.25 | average of CFU/g (1000 ppm ε-PL, after 24 hours): 1.77E+03 CFU/g | Log Reduction (1000 ppm ε-PL, after 24 hours): >0.48 | average Log Value (2000 ppm ε-PL, after 1 week): 4.74 | average of CFU/g (2000 ppm ε-PL, after 1 week): 5.50E+04 CFU/g | Log Reduction (2000 ppm ε-PL, after 1 week): 3.54 | average Log Value (2000 ppm ε-PL, after 2 weeks): 4.98 | average of CFU/g (2000 ppm ε-PL, after 2 weeks): 9.57E+04 CFU/g | Log Reduction (2000 ppm ε-PL, after 2 weeks): 3.31 | average Log Value (2000 ppm ε-PL, after 3 weeks): 4.68 | average of CFU/g (2000 ppm ε-PL, after 3 weeks): 4.73E+04 CFU/g | Log Reduction (2000 ppm ε-PL, after 3 weeks): 3.72 | average Log Value (2000 ppm ε-PL, after 4 weeks): >6.44 | average of CFU/g (2000 ppm ε-PL, after 4 weeks): >2.76E+06 CFU/g | Log Reduction (2000 ppm ε-PL, after 4 weeks): <2.03 | average Log Value (2000 ppm ε-PL, after 5 weeks): 5.90 | average of CFU/g (2000 ppm ε-PL, after 5 weeks): 7.91E+05 CFU/g | Log Reduction (2000 ppm ε-PL, after 5 weeks): 2.53 | average Log Value (2000 ppm ε-PL, after 7 weeks): 6.66 | average of CFU/g (2000 ppm ε-PL, after 7 weeks): 4.53E+06 CFU/g | Log Reduction (2000 ppm ε-PL, after 7 weeks): 1.77 | average Log Value (2000 ppm ε-PL, after 8 weeks): 6.19 | average of CFU/g (2000 ppm ε-PL, after 8 weeks): 1.54E+06 CFU/g | Log Reduction (2000 ppm ε-PL, after 8 weeks): 2.15 | CFU/g (2000 ppm ε-PL, after 3 hours): 1.94E+02 CFU/g and 1.96E+02 CFU/g and 1.50E+02 CFU/g | average Log Value (2000 ppm ε-PL, after 3 hours): 2.26 | average of CFU/g (2000 ppm ε-PL, after 3 hours): 1.80E+02 CFU/g | Log Reduction (2000 ppm ε-PL, after 3 hours): 0.53 | CFU/g (2000 ppm ε-PL, after 24 hours): 1.98E+02 CFU/g and 2.64E+02 CFU/g and 2.14E+02 CFU/g | average Log Value (2000 ppm ε-PL, after 24 hours): 2.35 | average of CFU/g (2000 ppm ε-PL, after 24 hours): 2.25E+02 CFU/g | Log Reduction (2000 ppm ε-PL, after 24 hours): >1.37 | post-lethality effect (3000 ppm): > 1 log | average Log Value (3000 ppm ε-PL, after 1 week): 1.00 | average of CFU/g (3000 ppm ε-PL, after 1 week): 1.00E+01 CFU/g | Log Reduction (3000 ppm ε-PL, after 1 week): 7.28 | average Log Value (3000 ppm ε-PL, after 2 weeks): 1.44 | average of CFU/g (3000 ppm ε-PL, after 2 weeks): 2.73E+01 CFU/g | Log Reduction (3000 ppm ε-PL, after 2 weeks): 6.85 | average Log Value (3000 ppm ε-PL, after 3 weeks): <1.67 | average of CFU/g (3000 ppm ε-PL, after 3 weeks): <4.67E+01 CFU/g | Log Reduction (3000 ppm ε-PL, after 3 weeks): >6.72 | average Log Value (3000 ppm ε-PL, after 4 weeks): <0.43 | average of CFU/g (3000 ppm ε-PL, after 4 weeks): <2.67E+00 CFU/g | Log Reduction (3000 ppm ε-PL, after 4 weeks): >8.05 | CFU/g (3000 ppm ε-PL, after 5 weeks): <2.00E+00 CFU/g | average Log Value (3000 ppm ε-PL, after 5 weeks): <0.30 | average of CFU/g (3000 ppm ε-PL, after 5 weeks): <2.00E+00 CFU/g | Log Reduction (3000 ppm ε-PL, after 5 weeks): >8.12 | average Log Value (3000 ppm ε-PL, after 7 weeks): <1.08 | average of CFU/g (3000 ppm ε-PL, after 7 weeks): <1.20E+01 CFU/g | Log Reduction (3000 ppm ε-PL, after 7 weeks): >7.34 | CFU/g (3000 ppm ε-PL, after 8 weeks): <2.00E+00 CFU/g | average Log Value (3000 ppm ε-PL, after 8 weeks): <0.30 | average of CFU/g (3000 ppm ε-PL, after 8 weeks): <2.00E+00 CFU/g | Log Reduction (3000 ppm ε-PL, after 8 weeks): >8.03 | average Log Value (3000 ppm ε-PL, after 3 hours): 1.51 | average of CFU/g (3000 ppm ε-PL, after 3 hours): 3.20E+01 CFU/g | Log Reduction (3000 ppm ε-PL, after 3 hours): 1.28 | CFU/g (3000 ppm ε-PL, after 24 hours): 5.00E+01 CFU/g and 6.40E+01 CFU/g and 7.20E+01 CFU/g | average Log Value (3000 ppm ε-PL, after 24 hours): 1.79 | average of CFU/g (3000 ppm ε-PL, after 24 hours): 6.20E+01 CFU/g | Log Reduction (3000 ppm ε-PL, after 24 hours): >1.93 | average Log Value (4000 ppm ε-PL, after 1 week): <0.52 | average of CFU/g (4000 ppm ε-PL, after 1 week): <3.35E+00 CFU/g | Log Reduction (4000 ppm ε-PL, after 1 week): >7.76 | CFU/g (4000 ppm ε-PL, after 2 weeks): <2.00E+00 CFU/g | average Log Value (4000 ppm ε-PL, after 2 weeks): <0.30 | average of CFU/g (4000 ppm ε-PL, after 2 weeks): <2.00E+00 CFU/g | Log Reduction (4000 ppm ε-PL, after 2 weeks): >7.29 | CFU/g (4000 ppm ε-PL, after 3 weeks): <2.00E+00 CFU/g | average Log Value (4000 ppm ε-PL, after 3 weeks): <0.3 | average of CFU/g (4000 ppm ε-PL, after 3 weeks): <2.00E+00 CFU/g | Log Reduction (4000 ppm ε-PL, after 3 weeks): >8.09 | CFU/g (4000 ppm ε-PL, after 4 weeks): 2.00E+00 CFU/g and <2.00E+00 CFU/g | average Log Value (4000 ppm ε-PL, after 4 weeks): <0.30 | average of CFU/g (4000 ppm ε-PL, after 4 weeks): <2.00E+00 CFU/g | Log Reduction (4000 ppm ε-PL, after 4 weeks): >8.17 | CFU/g (4000 ppm ε-PL, after 5 weeks): <2.00E+00 CFU/g | average Log Value (4000 ppm ε-PL, after 5 weeks): <0.30 | average of CFU/g (4000 ppm ε-PL, after 5 weeks): <2.00E+00 CFU/g | Log Reduction (4000 ppm ε-PL, after 5 weeks): >8.12 | CFU/g (4000 ppm ε-PL, after 7 weeks): <2.00E+00 CFU/g | average Log Value (4000 ppm ε-PL, after 7 weeks): <0.30 | average of CFU/g (4000 ppm ε-PL, after 7 weeks): <2.00E+00 CFU/g | Log Reduction (4000 ppm ε-PL, after 7 weeks): >8.12 | CFU/g (4000 ppm ε-PL, after 8 weeks): <2.00E+00 CFU/g | average Log Value (4000 ppm ε-PL, after 8 weeks): <0.30 | average of CFU/g (4000 ppm ε-PL, after 8 weeks): <2.00E+00 CFU/g | Log Reduction (4000 ppm ε-PL, after 8 weeks): >8.03 | average Log Value (4000 ppm ε-PL, after 3 hours): <1.17 | average of CFU/g (4000 ppm ε-PL, after 3 hours): <1.47E+01 CFU/g | Log Reduction (4000 ppm ε-PL, after 3 hours): >1.62 | average Log Value (4000 ppm ε-PL, after 24 hours): 1.29 | average of CFU/g (4000 ppm ε-PL, after 24 hours): 1.93E+01 CFU/g | Log Reduction (4000 ppm ε-PL, after 24 hours): >2.44 | average Log Value (5000 ppm ε-PL, after 1 week): 1.95 | average of CFU/g (5000 ppm ε-PL, after 1 week): 8.87E+01 CFU/g | Log Reduction (5000 ppm ε-PL, after 1 week): 6.33 | average Log Value (5000 ppm ε-PL, after 2 weeks): <0.30 | average of CFU/g (5000 ppm ε-PL, after 2 weeks): <2.00E+00 CFU/g | Log Reduction (5000 ppm ε-PL, after 2 weeks): >7.99 | CFU/g (5000 ppm ε-PL, after 3 weeks): <2.00E+00 CFU/g | average Log Value (5000 ppm ε-PL, after 3 weeks): <0.30 | average of CFU/g (5000 ppm ε-PL, after 3 weeks): <2.00E+00 CFU/g | Log Reduction (5000 ppm ε-PL, after 3 weeks): >8.09 | average Log Value (5000 ppm ε-PL, after 4 weeks): <0.30 | average of CFU/g (5000 ppm ε-PL, after 4 weeks): <2.00E+00 CFU/g | Log Reduction (5000 ppm ε-PL, after 4 weeks): <8.17 | CFU/g (5000 ppm ε-PL, after 5 weeks): <2.00E+00 CFU/g | average Log Value (5000 ppm ε-PL, after 5 weeks): <0.30 | average of CFU/g (5000 ppm ε-PL, after 5 weeks): <2.00E+00 CFU/g | Log Reduction (5000 ppm ε-PL, after 5 weeks): >8.12 | CFU/g (5000 ppm ε-PL, after 7 weeks): <2.00E+00 CFU/g | average Log Value (5000 ppm ε-PL, after 7 weeks): <0.30 | average of CFU/g (5000 ppm ε-PL, after 7 weeks): <2.00E+00 CFU/g | Log Reduction (5000 ppm ε-PL, after 7 weeks): >8.12 | CFU/g (5000 ppm ε-PL, after 8 weeks): <2.00E+00 CFU/g | average Log Value (5000 ppm ε-PL, after 8 weeks): <0.30 | average of CFU/g (5000 ppm ε-PL, after 8 weeks): <2.00E+00 CFU/g | Log Reduction (5000 ppm ε-PL, after 8 weeks): >8.03 | average Log Value (5000 ppm ε-PL, after 3 hours): 0.60 | average of CFU/g (5000 ppm ε-PL, after 3 hours): 4.00E+00 CFU/g | Log Reduction (5000 ppm ε-PL, after 3 hours): 2.18 | average Log Value (5000 ppm ε-PL, after 24 hours): 0.73 | average of CFU/g (5000 ppm ε-PL, after 24 hours): 5.33E+00 CFU/g | Log Reduction (5000 ppm ε-PL, after 24 hours): >3.00 | outgrowth of Listeria (final concentration of 3000 ppm in ground turkey, eight week period, 10° C.): completely inhibited the outgrowth of Listeria
